Experiments:
[1] = test system: Aβ42; experiment: Screening for γ-secretase-modulating activity: Aβ42 in supernatant of SKNBE2 cells carrying hAPP 695 wild type (Alphalisa); type: cell-based, human; details: overnight incubation, Alphalisa on supernatant
Outline: (§1)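 Secreted Aβ42 (C-terminal/N-terminal antibody pair) and Aβtotal (N-terminal/mid-region pair) were quantified by AlphaLISA after overnight compound exposure of wild-type hAPP 695 SKNBE2 cells at 37 °C. Values expressed relative to compound-free maximum, with IC50 from nonlinear 4-parameter regression.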

[2] = test system: Aβtotal; experiment: Screening for γ-secretase-modulating activity: Aβtotal in supernatant of SKNBE2 cells carrying hAPP 695 wild type (Alphalisa); type: cell-based, human; details: overnight incubation, Alphalisa on supernatant
Outline: as §1

[3] = test system: Aβtotal; experiment: In vivo efficacy B-1a/B-2a: brain soluble Aβtotal in non-transgenic rodents, ELISA; set-up: species or system mouse; details: dose 30 mg/kg oral dosing, brain soluble fraction, untreated animals (Ctrl) set at 100; for response vs control in vivo at 30 mg/kg: Mus musculus, po, 4 h, read-out: Aβtotal (% vs Ctrl)_Mean; for Aβtotal (% vs Ctrl)_Mean: 30 mg/kg
From the text: To determine whether acute administration of an Aβ42 lowering agent would reduce Aβ42 levels in vivo, non-transgenic rodents, e.g. mice or rats were used. Animals treated with the Aβ42 lowering agent were examined and compared to those untreated or treated with vehicle and brain levels of soluble Aβ42 and total Aβ were quantitated by standard techniques, for example, using ELISA. Treatment periods varied from hours (h) to days and were adjusted based on the results of the Aβ42 lowering once a time course of onset of effect could be established.
A typical protocol for measuring Aβ42 lowering in vivo is shown but it is only one of many variations that could be used to optimize the levels of detectable Aβ. For example, Aβ42 lowering compounds were formulated in 20% of Captisol® (a sulfobutyl ether of β-cyclodextrin) in water or 20% hydroxypropyl β cyclodextrin. The Aβ42 lowering agents were administered as a single oral dose or by any acceptable route of administration to overnight fasted animals. After 4 h, the animals were sacrificed and Aβ42 levels were analysed.
Blood was collected by decapitation and exsanguinations in EDTA-treated collection tubes. Blood was centrifuged at 1900 g for 10 minutes (min) at 4° C. and the plasma recovered and flash frozen for later analysis. The brain was removed from the cranium and hindbrain. The cerebellum was removed and the left and right hemisphere were separated. The left hemisphere was stored at −18° C. for quantitative analysis of test compound levels. The right hemisphere was rinsed with phosphate-buffered saline (PBS) buffer and immediately frozen on dry ice and stored at −80° C. until homogenization for biochemical assays.
Mouse brains from non-transgenic animals were resuspended in 8 volumes of 0.4% DEA (diethylamine)/50 mM NaCl containing protease inhibitors (Roche-11873580001 or 04693159001) per gram of tissue, e.g. for 0.158 g brain, add 1.264 mL of 0.4% DEA. All samples were homogenized in the FastPrep-24 system (MP Biomedicals) using lysing matrix D (MPBio #6913-100) at 6 m/s for 20 seconds. Homogenates were centrifuged at 20800×g for 5 min and supernatants collected. Supernatants were centrifuged at 221.300×g for 50 min. The resulting high speed supernatants were then transferred to fresh eppendorf tubes. Nine parts of supernatant were neutralized with 1 part 0.5 M Tris-HCl pH 6.8 and used to quantify Aβtotal and Aβ42.
To quantify the amount of Aβtotal and Aβ42 in the soluble fraction of the brain homogenates, Enzyme-Linked-Immunosorbent-Assays were used. Briefly, the standards (a dilution of synthetic Aβ1-40 and Aβ1-42, Bachem) were prepared in 1.5 mL Eppendorf tube in Ultraculture, with final concentrations ranging from 10000 to 0.3 pg/mL. The samples and standards were co-incubated with HRPO-labelled N-terminal antibody JRF/rAμ/2 for Aβ42 detection and with the biotinylated mid-domain antibody 4G8 for Aβtotal detection. 50 μl of conjugate/sample or conjugate/standards mixtures were then added to the antibody-coated plate (the capture antibodies selectively recognize the C-terminal end of Aβ42, antibody JRF/cAβ42/26, for Aβ42 detection and the N-terminus of AB, antibody JRF/rAβ/2, for Aβtotal detection). The plate was allowed to incubate overnight at 4° C. in order to allow formation of the antibody-amyloid complex. Following this incubation and subsequent wash steps the ELISA for Aβ42 quantification was finished by addition of Quanta Blu fluorogenic peroxidase substrate according to the manufacturer's instructions (Pierce Corp., Rockford, Ill.). A reading was performed after 10 to 15 min (excitation 320 nm/emission 420 nm).
For Aβtotal detection, a Streptavidine-Peroxidase-Conjugate was added, followed 60 min later by an additional wash step and addition of Quanta Blu fluorogenic peroxidase substrate according to the manufacturer's instructions (Pierce Corp., Rockford, Ill.). A reading was performed after 10 to 15 min (excitation 320 nm/emission 420 nm). […]

[4] = Homo sapiens, SKNBE2, SKNBE2 human neuroblastoma cells carrying hAPP 695 wild type
[5] = SKNBE2 human neuroblastoma cells carrying hAPP 695 wild type

| SMILES | melting point [°C] | IC50 [1, 4] [µM] | IC50 [2, 4] [µM] | response vs control in vivo at 30 mg/kg [3] [%] | IC50 [1, 5] [µM] | Aβtotal (% vs Ctrl)_Mean [3] [% vs Ctrl] | IC50 [2, 5] [µM] |
| --- | --- | --- | --- | --- | --- | --- | --- |
| Cc1cn(-c2ccc3[nH]c(-c4nc5n(n4)CCCC5c4ccccc4C)cc3n2)cn1.Cl (centres unmarked) [Compound 5, 5,6,7,8-tetrahydro-2-[5-(4-methyl-1H-imidazol-1-yl)-1H-pyrrolo[3,2-b]pyridin-2-yl]-8-(2-methylphenyl)-[1,2,4]triazolo[1,5-a]pyridine] | 189.4 | 0.105 | > 10 | 80 |  |  |  |
| Cc1cc(-c2ccc3[nH]c(-c4nc5n(n4)CCCC5c4ccccc4C)cc3n2)ccn1 (centres unmarked) [Compound 6, 5,6,7,8-tetrahydro-8-(2-methylphenyl)-2-[5-(2-methyl-4-pyridinyl)-1H-pyrrolo[3,2-b]pyridin-2-yl]-[1,2,4]triazolo[1,5-a]pyridine] | 266.5 | 0.047 | > 10 | 87 |  |  |  |
| Cc1cc(F)ccc1C1CCCn2nc(-c3cc4cc(C#N)ccc4[nH]3)nc21 (centres unmarked) [Compound 9, 2-[8-(4-fluoro-2-methylphenyl)-5,6,7,8-tetrahydro[1,2,4]triazolo[1,5-a]pyridin-2-yl]-1H-indole-5-carbonitrile] | 244.9 |  | > 10 |  | 0.138 | 97 |  |
| Cc1ccccc1C1CCCn2nc(-c3cc4cc(C#N)ccc4[nH]3)nc21 (centres unmarked) [Compound 12, 2-[5,6,7,8-tetrahydro-8-(2-methylphenyl)[1,2,4]triazolo[1,5-a]pyridin-2-yl]-1H-indole-5-carbonitrile] | 142.1 |  | > 10 |  | 0.126 | 91 |  |
| N#Cc1ccc2[nH]c(-c3nc4n(n3)CCCC4c3ccccc3C(F)(F)F)cc2c1 (centres unmarked) [Compound 18, 2-[5,6,7,8-tetrahydro-8-[2-(trifluoromethyl)phenyl][1,2,4]triazolo[1,5-a]pyridin-2-yl]-1H-indole-5-carbonitrile] | 229 | 0.117 | > 10 | 102 |  |  |  |
| N#Cc1ccc2[nH]c(-c3nc4n(n3)CCCC4c3cccc(OC(F)(F)F)c3)cc2c1 (centres unmarked) [Compound 20, 2-[5,6,7,8-tetrahydro-8-[3-(trifluoromethoxy)phenyl][1,2,4]triazolo[1,5-a]pyridin-2-yl]-1H-indole-5-carbonitrile] | 225.1 | 0.275 | > 10 | 113 |  |  |  |
| COc1c(C#N)ccc2[nH]c(-c3cn4c(n3)C(c3ccc(F)cc3C)OCC4)cc12 (centres unmarked) [Compound 46, 2-[8-(4-fluoro-2-methylphenyl)-5,6-dihydro-8H-imidazo[2,1-c][1,4]oxazin-2-yl]-4-methoxy-1H-indole-5-carbonitrile] | 236.2 |  | > 10 |  | 0.054 | 88 |  |
| COc1c(C#N)ccc2[nH]c(-c3cn4c(n3)C(c3ccc(F)cc3C)OCC4)cc12 (centres unmarked) [Compound 47, 2-[8-(4-fluoro-2-methylphenyl)-5,6-dihydro-8H-imidazo[2,1-c][1,4]oxazin-2-yl]-4-methoxy-1H-indole-5-carbonitrile] | 242.6 |  |  |  | 0.023 | 117 | > 10 |
| Cc1cn(-c2ccc3[nH]c(-c4nc5n(n4)CCCC5c4ccc(F)cc4C)cc3n2)cn1 (centres unmarked) [Compound 65, 8-(4-fluoro-2-methylphenyl)-5,6,7,8-tetrahydro-2-[5-(4-methyl-1H-imidazol-1-yl)-1H-pyrrolo[3,2-b]pyridin-2-yl]-[1,2,4]triazolo[1,5-a]pyridine] |  |  | 7.24 | 108 | 0.046 |  |  |
| Cc1cc(F)ccc1C1CCCn2nc(-c3cc4nc(-c5cnn(C)c5)ccc4[nH]3)nc21 (centres unmarked) [Compound 69, 8-(4-fluoro-2-methylphenyl)-5,6,7,8-tetrahydro-2-[5-(1-methyl-1H-pyrazol-4-yl)-1H-pyrrolo[3,2-b]pyridin-2-yl]-[1,2,4]triazolo[1,5-a]pyridine] |  |  |  | 122 | 0.117 |  | > 10 |
| Cc1cn(-c2cc3cc(-c4nc5n(n4)CCCC5c4ccc(F)cc4C)[nH]c3cn2)cn1 (centres unmarked) [Compound 71, 8-(4-fluoro-2-methylphenyl)-5,6,7,8-tetrahydro-2-[5-(4-methyl-1H-imidazol-1-yl)-1H-pyrrolo[2,3-c]pyridin-2-yl]-[1,2,4]triazolo[1,5-a]pyridine] |  | 0.065 | > 10 | 115 |  |  |  |
| Cc1cn(-c2ccc3[nH]c(-c4nc5n(n4)CCCC5c4ccc(F)cc4C)cc3c2)cn1 (centres unmarked) [Compound 73, 8-(4-fluoro-2-methylphenyl)-5,6,7,8-tetrahydro-2-[5-(4-methyl-1H-imidazol-1-yl)-1H-indol-2-yl]-[1,2,4]triazolo[1,5-a]pyridine] |  | 0.043 | > 10 | 80 |  |  |  |
| COc1c(C#N)ccc2[nH]c(-c3cn4c(n3)C(c3ccc(F)cc3C)CCC4)cc12 (centres unmarked) [Compound 74, 2-[8-(4-fluoro-2-methylphenyl)-5,6,7,8-tetrahydroimidazo[1,2-a]pyridin-2-yl]-4-methoxy-1H-indole-5-carbonitrile] |  | 0.112 | > 10 | 85 |  |  |  |
| COc1c(-c2cnn(C)c2)ccc2[nH]c(-c3cn4c(n3)C(c3ccc(F)cc3C)OCC4)cc12 (centres unmarked) [Compound 96, 8-(4-fluoro-2-methylphenyl)-5,6-dihydro-2-[4-methoxy-5-(1-methyl-1H-pyrazol-4-yl)-1H-indol-2-yl]-8H-imidazo[2,1-c][1,4]oxazine] |  | 0.074 | > 10 | 92 |  |  |  |
| Cc1cc(F)ccc1C1OCCn2cc(-c3cc4cc(-c5cnn(C)c5)ccc4[nH]3)nc21 (centres unmarked) [Compound 99, 8-(4-fluoro-2-methylphenyl)-5,6-dihydro-2-[5-(1-methyl-1H-pyrazol-4-yl)-1H-indol-2-yl]-8H-imidazo[2,1-c][1,4]oxazine] |  | 0.078 | > 10 | 115 |  |  |  |
| COc1c(C#N)ccc2[nH]c(-c3nc4n(n3)CCOC4c3ccc(F)cc3C)cc12 (centres unmarked) [Compound 111, 2-[8-(4-fluoro-2-methylphenyl)-5,6-dihydro-8H-[1,2,4]triazolo[5,1-c][1,4]oxazin-2-yl]-4-methoxy-1H-indole-5-carbonitrile] |  |  | > 10 | 120 | 0.093 |  |  |
| Cc1cn(-c2ccc3[nH]c(-c4nc5n(n4)CCCC5c4ccc(F)cc4C)nc3c2)cn1 (centres unmarked) [Compound 176, 8-(4-fluoro-2-methylphenyl)-5,6,7,8-tetrahydro-2-[5-(4-methyl-1H-imidazol-1-yl)-1H-benzimidazol-2-yl]-[1,2,4]triazolo[1,5-a]pyridine] |  |  |  | 101 | 0.089 |  | > 10 |
